For assay [1], the target named is T1, Human immunodeficiency virus type 1 integrase (Human immunodeficiency virus 1, UniProt Q7ZJM1, C130S). As to the kind of experiment: Inhibition of HIV1 integrase C130S mutant 3' processing step.
Assay [2] has as its target Human immunodeficiency virus type 1 integrase (Human immunodeficiency virus 1, UniProt Q7ZJM1, C280S/F182K). As to the kind of experiment: Inhibition of soluble HIV1 integrase F182K/ C280S mutant 3' processing step.
For assay [3], the target named is T2, Human immunodeficiency virus type 1 integrase (Human immunodeficiency virus 1, UniProt Q7ZJM1, C130A). Kind of assay: Inhibition of mutant HIV1 integrase C130A mutant 3' processing step.
For assay [4], the target named is T2, Human immunodeficiency virus type 1 integrase. Kind of assay: Inhibition of HIV1 integrase C130A mutant strand transfer step.
The target of assay [5] is Human immunodeficiency virus type 1 integrase (Human immunodeficiency virus 1, UniProt Q7ZJM1, C280S/F185K). Kind of assay: Inhibition of soluble HIV1 integrase F185K/C280S mutant strand transfer step.
Assay [6] concerns the target T3, Human immunodeficiency virus type 1 integrase (Human immunodeficiency virus 1, UniProt Q7ZJM1). Kind of assay: Inhibition of wild type HIV1 integrase 3' processing step.
Assay [7] deals with T3, Human immunodeficiency virus type 1 integrase. As to the kind of experiment: Inhibition of wild type HIV1 integrase strand transfer step.
For assay [8], the target named is T1, Human immunodeficiency virus type 1 integrase. As to the kind of experiment: Inhibition of HIV1 integrase C130S mutant strand transfer step.

Each structure is given as a SMILES string.

Chain of Human immunodeficiency virus type 1 integrase (Human immunodeficiency virus 1, UniProt Q7ZJM1, C280S/F185K) (Q7ZJM1 entry or part of it C280S/F185K): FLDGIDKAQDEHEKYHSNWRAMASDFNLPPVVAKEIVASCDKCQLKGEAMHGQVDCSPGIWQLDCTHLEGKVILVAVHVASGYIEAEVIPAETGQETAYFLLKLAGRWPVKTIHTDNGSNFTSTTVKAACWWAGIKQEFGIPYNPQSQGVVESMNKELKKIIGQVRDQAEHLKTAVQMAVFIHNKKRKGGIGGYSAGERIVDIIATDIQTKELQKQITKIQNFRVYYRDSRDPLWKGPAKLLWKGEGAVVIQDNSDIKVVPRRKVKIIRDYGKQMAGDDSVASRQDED
T3 sequence (Q7ZJM1 whole entry): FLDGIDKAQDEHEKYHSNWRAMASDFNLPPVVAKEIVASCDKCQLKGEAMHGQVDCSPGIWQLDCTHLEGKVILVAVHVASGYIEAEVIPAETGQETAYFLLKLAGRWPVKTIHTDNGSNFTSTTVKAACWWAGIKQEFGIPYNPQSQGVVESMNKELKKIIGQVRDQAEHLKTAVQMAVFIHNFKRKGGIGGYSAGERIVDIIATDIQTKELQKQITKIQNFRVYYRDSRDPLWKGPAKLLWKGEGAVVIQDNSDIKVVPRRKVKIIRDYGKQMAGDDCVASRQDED
T2 sequence (Q7ZJM1 entry or part of it C130A): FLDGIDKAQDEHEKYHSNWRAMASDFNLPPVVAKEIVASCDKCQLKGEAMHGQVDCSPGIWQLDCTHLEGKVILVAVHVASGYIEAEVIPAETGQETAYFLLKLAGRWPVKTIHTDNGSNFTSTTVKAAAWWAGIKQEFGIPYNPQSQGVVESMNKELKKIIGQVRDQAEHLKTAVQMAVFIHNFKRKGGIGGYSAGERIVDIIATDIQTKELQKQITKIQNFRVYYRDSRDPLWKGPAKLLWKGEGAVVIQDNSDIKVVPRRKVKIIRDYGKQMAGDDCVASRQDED
T1 sequence (Q7ZJM1 entry or part of it C130S): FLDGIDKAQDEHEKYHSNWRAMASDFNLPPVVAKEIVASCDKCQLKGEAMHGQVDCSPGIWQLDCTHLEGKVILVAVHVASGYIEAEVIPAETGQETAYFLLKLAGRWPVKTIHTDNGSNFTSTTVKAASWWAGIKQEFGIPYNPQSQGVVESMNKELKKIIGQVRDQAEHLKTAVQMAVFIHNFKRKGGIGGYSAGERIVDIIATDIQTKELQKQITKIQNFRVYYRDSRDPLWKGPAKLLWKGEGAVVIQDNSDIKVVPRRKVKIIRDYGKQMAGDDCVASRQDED

Turning to `CC[C@H](C)[C@H](NC(=O)CNC(=O)[C@H](CC(C)C)NC(=O)[C@H](C)NC(=O)[C@H](Cc1ccc(O)cc1)NC(=O)[C@H](CCC(N)=O)NC(=O)[C@H](CO)NC(=O)[C@H](CC(=O)O)NC(=O)[C@@H](NC(=O)[C@@H](NC(=O)[C@@H](NC(=O)[C@H](CC(N)=O)NC(=O)[C@@H](NC(=O)[C@H](CCC(=O)O)NC(=O)[C@H](CC(C)C)NC(=O)CNC(=O)[C@H](CO)NC(=O)[C@H](CC(=O)O)NC(=O)[C@H](CCC(N)=O)NC(=O)[C@@H](N)CC(C)C)C(C)C)[C@@H](C)CC)C(C)C)[C@@H](C)O)C(=O)O`, the IC50 in assay [1] was 18 µM; in assay [2] it was > 167 µM; in assay [3] it was > 167 µM; in assay [4] it was 20 µM; in assay [5] it was 36 µM; in assay [6] it was 11 µM. The IC50 was determined as 2 µM in assay [7] and 4 µM in assay [8].

Consider `CC[C@H](C)[C@H](NC(=O)[C@H](CO)NC(=O)[C@H](CCC(=O)O)NC(=O)[C@@H](NC(=O)[C@@H](NC(=O)[C@@H](NC(=O)[C@H](CCCCN)NC(=O)[C@H](CCC(N)=O)NC(=O)[C@@H](NC(=O)[C@H](C)NC(=O)[C@H](CCC(=O)O)NC(=O)[C@@H](NC(=O)[C@H](CC(C)C)NC(=O)[C@H](CCC(N)=O)NC(=O)[C@@H](N)CCCCN)[C@@H](C)O)C(C)C)[C@@H](C)CC)[C@@H](C)O)[C@@H](C)O)C(=O)N[C@H](C(=O)N[C@H](C(=O)N[C@@H](Cc1c[nH]c2ccccc12)C(=O)NCC(=O)N[C@@H](CCCCN)C(=O)O)[C@@H](C)CC)C(C)C`, for which the IC50 in assay [1] was determined as 29 µM; in assay [2], 51 µM; in assay [3], 15 µM; in assay [4] it was 10 µM; in assay [5] it was 31 µM; in assay [6] it was 7 µM. The IC50 in assay [7] was found to be 4 µM; in assay [8], 2 µM.

In the case of `CC[C@H](C)C(NC(=O)[C@H](CCC(=O)O)NC(=O)[C@H](CC(C)C)NC(=O)[C@H](CC(=O)O)NC(=O)[C@H](CO)NC(=O)CNC(=O)[C@@H](NC(=O)[C@H](Cc1ccc(O)cc1)NC(=O)[C@H](CC(C)C)NC(=O)[C@H](CC(=O)O)NC(=O)[C@H](CC(=O)O)NC(=O)[C@H](CCSC)NC(=O)[C@H](Cc1ccc(O)cc1)NC(=O)[C@H](CCC(N)=O)NC(=O)[C@H](Cc1ccc(O)cc1)NC(=O)[C@@H](NC(=O)[C@@H](NC(=O)[C@@H](NC(=O)[C@H](CC(=O)O)NC(=O)[C@@H]1CCCN1)[C@@H](C)CC)C(C)C)[C@@H](C)CC)C(C)C)C(=O)O` (stereo not given in full), the half-inhibitory concentration (IC50) in assay [1] was 41 µM; in assay [2], 28 µM; in assay [3], 20 µM; in assay [4], 5 µM; in assay [5] it was 23 µM; in assay [6], 6 µM. Moreover, the IC50 in assay [7] came out at 10 µM; in assay [8], 2 µM.

Regarding `CC[C@H](C)[C@H](NC(=O)[C@H](Cc1c[nH]c2ccccc12)NC(=O)[C@@H](NC(=O)[C@H](C)NC(=O)[C@H](CCC(N)=O)NC(=O)[C@H](Cc1c[nH]c2ccccc12)NC(=O)[C@H](Cc1ccc(O)cc1)NC(=O)[C@H](CCC(=O)O)NC(=O)[C@@H](NC(=O)[C@H](Cc1c[nH]c2ccccc12)NC(=O)[C@H](Cc1c[nH]c2ccccc12)NC(=O)[C@@H](NC(=O)[C@H](CCC(=O)O)NC(=O)[C@H](Cc1c[nH]c2ccccc12)NC(=O)[C@@H](NC(=O)[C@@H](N)CCC(=O)O)[C@@H](C)O)[C@@H](C)O)[C@@H](C)O)[C@@H](C)O)C(=O)N1CCC[C@H]1C(=O)N[C@@H](CCC(=O)O)C(=O)N[C@@H](Cc1c[nH]c2ccccc12)C(=O)N[C@@H](CCC(=O)O)C(=O)O`, the IC50 in assay [1] was 126 µM; in assay [2], 13 µM; in assay [3], 25 µM; in assay [4], 5 µM; in assay [5], 9 µM; in assay [6], 6 µM. Further, the IC50 was 2 µM in assay [7] and 27 µM in assay [8].

On to `CC[C@H](C)[C@H](NC(=O)[C@H](CC(C)C)NC(=O)[C@H](CCC(N)=O)NC(=O)[C@H](CCC(=O)O)NC(=O)[C@@H](NC(=O)[C@@H](NC(=O)[C@H](CCC(N)=O)NC(=O)[C@H](CC(N)=O)NC(=O)[C@@H](NC(=O)[C@H](CC(C)C)NC(=O)[C@@H](N)CCC(=O)O)C(C)C)[C@@H](C)CC)[C@@H](C)CC)C(=O)N[C@@H](CCCCN)C(=O)N[C@@H](CCCCN)C(=O)N[C@@H](CCC(=O)O)C(=O)N[C@@H](CCCCN)C(=O)N[C@H](C(=O)N[C@@H](Cc1ccc(O)cc1)C(=O)N[C@@H](CC(C)C)C(=O)N[C@@H](C)C(=O)N[C@@H](Cc1c[nH]c2ccccc12)C(=O)O)C(C)C`, for which the IC50 amounted to 136 µM in assay [1]; 113 µM in assay [2]; 45 µM in assay [3]; 15 µM in assay [4]; 83 µM in assay [5]; 15 µM in assay [6]. Further, the figures for the IC50 in assay [7] and in assay [8] were 14 µM and 7 µM, respectively.

As a reminder, the IC50 is the midpoint of a concentration-inhibition curve.

The values above are taken from ChEMBL document CHEMBL1149523, “Inhibition of HIV-1 integrase activity by synthetic peptides derived from the HIV-1 HXB2 Pol region of the viral genome” (Bioorg Med Chem Lett, 2006).
